Test results from PubChem BioAssay (NCI).
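A five-concentration, 48-hour dose response in 96-well plates underlies each endpoint, interpolated linearly between surrounding concentrations. GI50 marks 50% less growth. TGI: concentration producing complete growth inhibition.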

Assays:
Test in all cases: growth of human tumour cells (NCI), 48 h
[1] = test system: DMS 273 small cell lung
[2] = test system: KM20L2 colon
[3] = test system: XF 498 CNS
[4] = test system: M19-MEL melanoma

Row | Compound | TGI [1] | TGI [2] | TGI [3] | TGI [4] | GI50 [1] | GI50 [2] | GI50 [3] | GI50 [4]
1 | O=C1C(Cl)C(c2cccc(O)c2)N1n1cnc2ccccc2c1=O (stereo not given) | > 100 µM | > 100 µM | > 100 µM | > 100 µM |  |  |  | 
2 | CCN1C2=NC(=O)N(C)C(=O)C2(Cl)C(C(SC)S(=O)(=O)c2ccc(C)cc2)c2ccccc21 (stereo not given) | > 100 µM | > 100 µM | > 100 µM | 61.5 µM |  |  |  | 
3 | CC(C)N(C(=O)C12C3C4C5(C#N)C3C1(I)C5C42I)C(C)C (stereo not given) | > 100 µM | > 100 µM | > 100 µM | > 100 µM |  |  |  | 
4 | O=C1C=C[C@@]23CC1C(O)C[C@H]2C=Cc1ccccc13 (stereo not given in full) |  | > 100 µM | > 100 µM | > 100 µM |  |  |  | 
5 | CCOc1ccc(N=Cc2cccc3cccnc23)cc1 | > 100 µM | > 100 µM | > 100 µM | > 100 µM |  |  |  | 
6 | Cc1ccc(NC(=O)CC2C(=O)Nc3ccccc3S2=O)cc1C (stereo not given) | > 100 µM | > 100 µM | > 100 µM | > 100 µM |  |  |  | 
7 | O=c1n(C2CCCCC2)c(=C(Cl)Cl)c(=C(Cl)Cl)n1C1CCCCC1 | > 100 µM | > 100 µM | > 100 µM | > 100 µM |  |  |  | 
8 | O=C1C(Cl)=C(Cl)C(=O)N1C1C2CC3CC(C2)CC1C3 (stereo not given) | > 100 µM | > 100 µM | > 100 µM | > 100 µM |  |  |  | 
9 | CC(O)/C=C/C(CCC(C)CO)C(C)C (stereo not given) | > 100 µM |  | > 100 µM | > 100 µM |  |  |  | 
10 | O=S(=O)([O-])c1cccc2cccc(N=Cc3ccccc3[O-])c12.O=S(=O)([O-])c1cccc2cccc(N=Cc3ccccc3[O-])c12.[O]=[U]=[O] | > 100 µM | > 100 µM | > 100 µM | > 100 µM | 42.7 µM | > 100 µM | > 100 µM | > 100 µM
11 | Cc1cccc(-c2nc3c(C(=O)NCCN(C)C)cccc3[nH]2)c1 | 1.59 µM |  |  | 3.03 µM |  |  |  | 
12 | [Cl][Bi]([O]c1ccccn1)[O]c1ccccn1 | > 100 µM | > 100 µM | > 100 µM |  | > 100 µM | > 100 µM | > 100 µM | 
13 | CSc1nc(NC2OCC(OC(C)=O)C(OC(C)=O)C2OC(C)=O)c2c(OC(C)=O)c(C)c(=O)oc2n1 (stereo not given) |  | > 100 µM | > 100 µM | > 100 µM |  |  |  | 
14 | COC(=O)C1=C(C)N(NC(N)=O)C2(N)N(NC(N)=O)C(C)=C(C(=O)OC)C12C(=O)OC (stereo not given) | > 100 µM | > 100 µM | > 100 µM | > 100 µM |  |  |  | 
15 | Cc1c(/C=N/NS(=O)(=O)c2ccccc2)no[n+]1[O-] |  | > 100 µM |  |  |  |  |  | 
16 | O=C(O)CNc1c2ccccc2nc2ccccc12 | > 100 µM | > 100 µM | > 100 µM |  |  |  |  | 
17 | C/C(O)=C(\N=O)C(=O)NCCc1ccccc1 | > 93.4 µM | > 100 µM | > 31.6 µM | > 100 µM |  |  |  | 
